Experimental data from ChEMBL document CHEMBL1121411, “Convenient synthesis of 10-deazaaminopterin via a pteridine ylide” (J Med Chem, 1980).

Test system: HEp-2
Experiment: Tested for cloning suppression test against H.Ep.-2 cells
Format: functional
Conditions: Homo sapiens, read-out: ED50 (the source's name)

Row | SMILES | EC50 [nM]
1 | Nc1cc(N)c2cc(CCc3ccc(C(=O)NC(CCC(=O)O)C(=O)O)cc3)ccc2c1 (configuration not stated) | 0.9
2 | CN(Cc1cnc2nc(N)nc(N)c2n1)c1ccc(C(=O)N[C@@H](CCC(=O)O)C(=O)O)cc1 [METHOTREXATE] | 2.4
